Source: patent US6514997B2, “Antipicornaviral compounds and compositions, their pharmaceutical uses, and materials for their synthesis” (Agouron Pharmaceuticals, Inc., priority 1999, dated 2003)
Like-named read-outs stand apart in the source and are kept apart here.

Assays:
[1] = target: T1, Recombinant rhinovirus 3C protease, serotype 14 (Human rhinovirus 14, UniProt P03303); experiment: Inhibition of rhinovirus 3C protease (FRET assay, kobs/[I]), serotype 14; assay type: biochemical; settings: pH 7.6; HRV-14 3C protease; read-out: kobs/[I] (3C protease inhibition activity)
T1 construct: Recombinant rhinovirus 3C proteases; made in house
T1 sequence (P03303 1538-1719): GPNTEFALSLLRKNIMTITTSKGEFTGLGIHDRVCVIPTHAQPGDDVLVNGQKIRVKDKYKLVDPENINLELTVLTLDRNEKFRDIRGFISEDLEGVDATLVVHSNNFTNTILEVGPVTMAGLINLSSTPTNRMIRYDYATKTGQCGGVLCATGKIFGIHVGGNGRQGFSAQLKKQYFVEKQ
In short: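 Enzyme-start FRET assay with ~1 μM DABCYL/EDANS peptide substrate and 50-100 nM recombinant protease in 50 mM tris pH 7.6, 1 mM EDTA, 2% DMSO. Cleavage followed as fluorescence increase; kobs/[I] derived from progress curves.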

HRV-14 = experiment: Antirhinoviral H1-HeLa cell culture assay (XTT cell protection, EC50), HRV-14; assay type: cell-based, human rhinovirus (HRV) serotype-14 in H1-HeLa cells
In short: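 H1-HeLa cells were infected with HRV-14 at m.o.i. 0.13, or mock-infected, and incubated with compound for two days. Cell protection was read by XTT/PMS formazan absorbance at 450/650 nm to give EC50. CC50 came from mock-infected cells, and TI = CC50/EC50.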

[2] = test system: strains of human rhinovirus (HRV); experiment: Antirhinoviral H1-HeLa cell culture assay (XTT cell protection, EC50), other HRV strains; assay type: cell-based, human rhinovirus in H1-HeLa cells; settings: read-out: EC50
In short: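 H1-HeLa cells infected, or mock-infected, were incubated with compounds for two days. Cell protection measured by XTT/PMS formazan absorbance at 450/650 nm; TI taken as CC50 divided by EC50.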

[3] = Cytotoxicity (CC50) in mock-infected H1-HeLa cells, XTT dye reduction; assay type: cell-based, human; settings: human; for CC50 at 1 day: CVB3
In short: (§1)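 H1-HeLa cells mock-infected, read by XTT/PMS formazan at 450/650 nm.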

H1-HeLa cells = experiment: as above; assay type: cell-based, human
In short: as §1

coxsackievirus B2 (CVB2) = experiment: Antiviral cell culture assay (EC50), coxsackievirus B2; assay type: cell-based; settings: Enterovirus B
coxsackievirus B5 (CVB5) = experiment: Antiviral cell culture assay (EC50), coxsackievirus B5; assay type: cell-based; settings: Enterovirus B
echovirus 9 (ECHO-9) = experiment: Antiviral cell culture assay (EC50), echovirus 9; assay type: cell-based; settings: Enterovirus B; ECHO9
[4] = Cytotoxicity (CC50), cell line not stated; assay type: cell-based
[5] = test system: Coxsackievirus type A-21 (CAV-21); experiment: Anticoxsackieviral cell culture assay (XTT, EC50), CAV-21; assay type: cell-based, coxsackievirus A-21 in H1-HeLa cells
Experimental: (§2) Anticoxsackieviral Cell Culture Assay:
(§3) Coxsackievirus types A-21 (CAV-21) and B3 (CVB3) were purchased from American Type Culture Collection (ATCC, Rockville, Md.). Virus stocks were propagated and antiviral assays were performed in H1-HeLa cells (ATCC). Cells were grown in minimal essential medium with 10% fetal bovine serum (Life Technologies, Gaithersburg, Md.). The ability of the compounds of this invention to protect cells against either CAV-21 or CVB3 infection was measured by the XTT dye reduction method. This method is described in Weislow et al., J. Natl. Cancer Inst. (1989), vol. 81, 577-586. H1-HeLa cells were infected with CAV-21 or CVB3 at a multiplicity of infection (m.o.i.) of 0.025 or 0.075, respectively, or mock-infected with medium only. H1-HeLa cells were plated at 4×10^4 cells per well in a 96-well plate and incubated with appropriate concentrations of the test compound. One day (CVB3) or two days (CAV-21) later, XTT/PMS was added to test plates and the amount of formazan produced was quantified spectrophotometrically at 450/650 nm. […] The therapeutic index (TI) was calculated by dividing the CC50 by the EC50.

[6] = test system: Coxsackievirus type B3 (CVB3); experiment: Anticoxsackieviral cell culture assay (XTT, EC50), CVB3; assay type: cell-based, coxsackievirus B3 in H1-HeLa cells
Experimental: as §2, §3

[7] = test system: Echovirus type 11 (ECHO 11); experiment: Anti-echoviral cell culture assay (XTT, EC50), ECHO 11; assay type: cell-based, echovirus 11 in MRC-5 cells; settings: Enterovirus B, MRC5
Experimental: (§4) Anti-Echoviral and Anti-Enteroviral Cell Culture Assays
(§5) Echovirus type 11 (ECHO 11) was purchased from ATCC (Rockville, Md.). Virus stocks were propagated and antiviral assays were performed in MRC-5 cells (ATCC). Cells were grown in minimal essential medium with 10% fetal bovine serum (Life Technologies, Gaithersburg, Md.). The ability of the compounds of this invention to protect cells against ECHO 11 infection was measured by the XTT dye reduction method (Weislow et al., J. Natl. Cancer Inst. (1989), vol. 81, 577-586). MRC-5 cells were infected with ECHO 11 at an m.o.i. of 0.003 or 0.004, respectively, or mock-infected with medium only. Infected or uninfected cells were added at 1×10^4 cells per well and incubated with appropriate concentrations of compound. Four days later, XTT/PMS was added to test plates, and the amount of formazan produced was quantified spectrophotometrically at 450/650 nm. […] The therapeutic index (TI) was calculated by dividing the CC50 by the EC50. Activity of the compounds against enterovirus type 70 (EV 70) may be measured by the same assay as described above in this section. Enterovirus type 70 (EV 70) may be obtained from the American Type Culture Collection ATCC (Rockville, Md.).

[8] = test system: enterovirus type 70 (EV 70); experiment: Anti-enteroviral cell culture assay (XTT, EC50), EV 70; assay type: cell-based, enterovirus 70 in MRC-5 cells; settings: Enterovirus D, MRC5; ENT-70, MRC-5 cells
Experimental: as §4, §5

[9] = Cytotoxicity (CC50) in uninfected MRC-5 cells, XTT dye reduction; assay type: cell-based, human; settings: human, uninfected (mock-infected) MRC-5 cells; ECHO-11 (EV-11) row
Experimental: as §5

MRC-5 cells = experiment: as above; assay type: cell-based, human; settings: ENT-70 row
Experimental: as §5

[10] = H1-HeLa cells, mock-infected, HRV-14
[11] = Rhinovirus B, HRV14, H1-HeLa, HRV-14, read-out: EC50
[12] = mock-infected (uninfected) H1-HeLa cells, CAV-21
[13] = mock-infected (uninfected) H1-HeLa cells
[14] = CVB3, H1-HeLa cells, read-out: EC50

Compound `CC[C@@H](C(=O)N[C@H](/C=C/C(=O)OC1CCC1)C[C@@H]1CCNC1=O)n1cccc(NC(=O)c2cc(C)on2)c1=O` [Compound 59, trans-(2′S,3′″″S,4S)-4-[2′-(3″-{[1′″-(5″″-Methylisoxazol-3″″-yl)methanoyl]amino}-2′″oxo-2′″H-pyridin-1′″-yl)butanoylamino]-5-(2′″″-oxopyrrolidin-3′″″-yl)pent-2-enoic Acid Cyclobutyl Ester] has a kinact/KI [1] of 170000 M⁻¹ s⁻¹, an EC50 (HRV-14; Rhinovirus B, HRV14, H1-HeLa) of 20 nM and an EC50 ([2]; H1-HeLa, HRV-1A) of 84 nM. It also gave an EC50 ([2]; H1-HeLa, HRV-2) of 49 nM, an EC50 ([2]; H1-HeLa, HRV-23) of 37 nM and an EC50 ([2]; Human rhinovirus sp., H1-HeLa, HRV-Hanks) of 83 nM. For the same compound, the EC50 ([2]; Human rhinovirus sp., HRV3, H1-HeLa, HRV-3) was 33 nM, the EC50 ([2]; Human rhinovirus sp., HRV9, H1-HeLa, HRV-9) was 70 nM and the EC50 ([2]; Human rhinovirus sp., HRV10, H1-HeLa, HRV-10) was 58 nM. The EC50 ([2]; Human rhinovirus sp., HRV11, H1-HeLa, HRV-11) was 14 nM, the EC50 ([2]; Human rhinovirus sp., HRV13, H1-HeLa, HRV-13) was 12 nM and the EC50 ([2]; Human rhinovirus sp., HRV16, H1-HeLa, HRV-16) was 105 nM. For the same compound, the EC50 ([2]; Human rhinovirus sp., HRV19, H1-HeLa, HRV-19) was 44 nM, the EC50 ([2]; Human rhinovirus sp., HRV25, H1-HeLa, HRV-25) was 42 nM and the EC50 ([2]; Human rhinovirus sp., HRV39, H1-HeLa, HRV-39) was 122 nM. The EC50 ([2]; Human rhinovirus sp., HRV78, H1-HeLa, HRV-78) was 73 nM, the CC50 at 2 days [3, 10] was > 10000 nM and the CC50 (H1-HeLa cells; HRV-1A) was > 10000 nM. The CC50 (H1-HeLa cells; HRV-2) was > 10000 nM, the CC50 (H1-HeLa cells; HRV-3) was > 10000 nM and the CC50 (H1-HeLa cells; HRV-9) was > 10000 nM. For the same compound, the CC50 (H1-HeLa cells; HRV-10) was > 10000 nM, the CC50 (H1-HeLa cells; HRV-11) was > 10000 nM and the CC50 (H1-HeLa cells; HRV-13) was > 10000 nM. The CC50 (H1-HeLa cells; HRV-16) was > 10000 nM, the CC50 (H1-HeLa cells; HRV-19) was > 10000 nM and the CC50 (H1-HeLa cells; HRV-23) was > 10000 nM. The CC50 (H1-HeLa cells; HRV-25) was > 10000 nM, the CC50 (H1-HeLa cells; HRV-39) was > 10000 nM and the CC50 (H1-HeLa cells; HRV-78) was > 10000 nM. For the same compound, the CC50 (H1-HeLa cells; HRV-Hanks) was > 10000 nM, the EC50 (coxsackievirus B2 (CVB2)) was 50 nM and the EC50 (coxsackievirus B5 (CVB5)) was 40 nM. The EC50 (echovirus 9 (ECHO-9)) was 40 nM, the CC50 ([4]; CVB2) was > 10000 nM and the CC50 ([4]; CVB5) was > 10000 nM. For the same compound, the CC50 ([4]; ECHO9) was > 10000 nM.

In the case of `CCOC(=O)c1ccc(OCCC2CCN(c3ccc(C)nn3)CC2)cc1` [Pirodavir, reference compound], the EC50 (HRV-14; [11]) is reported as 30 nM, the CC50 at 2 days [3, 10] is reported as > 10000 nM and the CC50 at 2 days [3, 12] is reported as > 100000 nM. The CC50 at 1 day [3, 13] was > 100000 nM, the EC50 ([5]; Coxsackievirus, CAV-21, H1-HeLa cells, read-out: EC50) was > 100000 nM and the EC50 [6, 14] was > 100000 nM. The EC50 ([7]; ECHO-11 (also printed EV-11), MRC-5 cells, read-out: EC50) was 3700 nM, the EC50 [8] was 60 nM and the CC50 at 4 days [9] was > 10000 nM. The CC50 (MRC-5 cells) was > 10000 nM.

In the case of `Cc1cc(CCCOc2c(C)cc(-c3noc(C(F)(F)F)n3)cc2C)on1` [Pleconaril, reference compound], the EC50 (HRV-14; [11]) is reported as 10 nM, the CC50 at 2 days [3, 10] is reported as > 10000 nM and the CC50 at 2 days [3, 12] is reported as > 10000 nM. For the same compound, the CC50 at 1 day [3, 13] was > 10000 nM, the EC50 ([5]; Coxsackievirus, H1-HeLa) was 90 nM and the EC50 ([6]; H1-HeLa) was > 10000 nM. For the same compound, the EC50 [7] was 160 nM and the CC50 at 4 days [9] was > 10000 nM.

With `Cc1cc(CCCCCOc2c(Cl)cc(C3=NCCO3)cc2Cl)on1` [WIN 54954, reference compound] the EC50 (HRV-14; HRV-14, read-out: EC50) was 2130 nM, the CC50 (H1-HeLa cells; CAV-21) was > 100000 nM and the CC50 (H1-HeLa cells; CVB3) was > 100000 nM. The CC50 (H1-HeLa cells; HRV-14) was > 63000 nM, the EC50 ([5]; CAV-21, H1-HeLa cells, read-out: EC50) was > 100000 nM and the EC50 [6, 14] was > 100000 nM.
